From US20240101699A1, “MODULATION OF CD46 CELL SURFACE EXPRESSION AND THERAPEUTIC USE THEREOF” (The Regents of the University of California, priority 2021, published 2024)

Key:
[1] = tested on: CD46 cell surface expression on RPMI8226 cells; assay: CD46 cell surface expression on RPMI8226 cells by FACS / flow cytometry; format: cell-based; details: for CD46 cell surface expression (MFI, flow cytometry): RPMI8226, 7 days 37° C.; for CD46 upregulation on RPMI8226 cells: 7-day exposure to varying concentrations, FACS on day-7; for CD46 expression (FACS): RPMI8226 cells treated with IMiDs for 3 and 10 days
Method: Example 1: CD46 upregulation by exposure to pomalidomide and lenalidomide (FIGS. 1-2). The effect of pomalidomide and lenalidomide exposure to multiple myeloma (RPMI8226) cells was studied. RPMI8226 cells were treated with IMiDs (Pomalidomide and Lenalidomide) for 3 and 10 days (FIG. 1). CD46 expression was analyzed by FACS. CD38 was also measured as a reference. IMiDs-induced cell surface upregulation was observed only to selective antigens, e.g., CD46 but not CD38.
FACS was performed on day-7. […] FACS was performed on day-14.
FIG. 6: The multiple myeloma cell line RPMI8226 was incubated with 10 μM pomalidamide (pom) for 14 days, washed, and further incubated with 10 nM dexamethasone (dex) for 7 days. Cell surface CD46 expression was assessed by flow cytometry. MFI: median fluorescence intensity. Multiple group comparison was performed using One-way ANOVA. ** p<0.01; ****p<0.0001.
Methods: RMPI8226 cells were exposed to varying concentrations of the Stat3 inhibitor C188-9 and the glucocorticoid receptor inhibitor mifepristone for 7 days at 37° C. in culture media, and cell surface CD46 expression is detected by flow cytometry using the anti-CD46 antibody YS5 followed by AlexaFluo-617 labeled anti-human Fc secondary antibody. MFI (median fluorescence intensity) was recorded and analyzed by One-way ANOVA.

CD46 = target: T1, CD46 (human, UniProt P15529 35-392); assay: flow cytometry on RPMI8226 cells with a labelled anti-human Fc secondary antibody
T1 construct: whole, on cells; also called cell surface CD46
T1 sequence (looked up): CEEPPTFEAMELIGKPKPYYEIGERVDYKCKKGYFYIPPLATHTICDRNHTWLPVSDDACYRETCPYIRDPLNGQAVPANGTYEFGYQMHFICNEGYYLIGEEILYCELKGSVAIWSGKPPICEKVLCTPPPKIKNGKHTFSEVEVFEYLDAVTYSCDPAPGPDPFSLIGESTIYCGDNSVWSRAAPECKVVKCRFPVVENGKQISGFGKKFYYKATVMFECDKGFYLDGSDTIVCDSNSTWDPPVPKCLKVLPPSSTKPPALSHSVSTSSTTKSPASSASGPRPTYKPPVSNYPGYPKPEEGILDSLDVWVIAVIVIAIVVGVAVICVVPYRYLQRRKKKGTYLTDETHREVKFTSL
Method: MFI (median fluorescence intensity) was recorded and analyzed by One-way ANOVA.

Molecule: COc1ccc(S(=O)(=O)Nc2cc(-c3c(O)ccc4ccccc34)c(O)c3ccccc23)cc1 [C188-9, N-(1′, 2-Dihydroxy-1,2′-binaphthalen-4′-yl)-4-methoxybenzenesulfonamide]
- CD46 cell surface expression (MFI, flow cytometry) ([1]; high concentrations (50 μM)): inhibits
- CD46 cell surface expression (MFI, flow cytometry) ([1]; low/mid concentrations (10 and 20 μM)): stimulates

Molecule: Nc1cccc2c1CN(C1CCC(=O)NC1=O)C2=O (stereo not drawn) [lenalidomide]
- CD46 upregulation on RPMI8226 cells [1]: upregulation
- CD46 expression (FACS) [1]: upregulation

Molecule: CC#C[C@]1(O)CC[C@H]2[C@@H]3CCC4=CC(=O)CCC4=C3[C@@H](c3ccc(N(C)C)cc3)C[C@@]21C [mifepristone]
- CD46 cell surface expression (MFI, flow cytometry) ([1]; mifepristone at high concentrations (50 μM)): inhibits

Molecule: Nc1cccc2c1C(=O)N(C1CCC(=O)NC1=O)C2=O (stereo not drawn) [pomalidomide]
- CD46 upregulation on RPMI8226 cells [1]: upregulation
- CD46 expression (FACS) [1]: upregulation
- CD46 upregulation on multiple myeloma cell surface ([1]; prior exposure for a short period (7-10 days)): rather persistent CD46 upregulation

B1: YS5 (antibody, human IgG1, lambda, V domains shown)
VH: QVQLVQSGGGVVQPGRSLRLACAASGLTVNNYAMHWVRQAPGKGLEWVAVISYDGNNKYYADSVKGRFTISRDNSKNTLYLQMNSLRAEDTAVYYCAKGGGYFDLWGRGTLVTVSS
VL: QSVLTQPPSVSGAPGQRVTISCTGSSSNIGAGYDVHWYQQLPGTAPKLLIYGNNNRPSGVPDRFSGSKSGTSASLAITGLQAEDEADYYCSSYTSGTWLFGGGTKLTVLG
notes: The format used in the assay is not otherwise stated; also called YS5FL; anti-CD46 antibody YS5
- binding result (CD46): binds
